Test results taken from BigSolDB 2.1.

CN(Cc1ccccc1)CN1C(=O)C(=NNC(=O)c2ccccc2OCc2ccccc2)c2ccccc21
Details | solubility (mole fraction)
in PEG-400, 298.15 K | 0.00711
in PEG-400, 303.15 K | 0.00781
in PEG-400, 308.15 K | 0.00887
in PEG-400, 313.15 K | 0.00992
in PEG-400, 318.15 K | 0.0114

solubility (mole fraction)
Details | in ethanol | in ethylene glycol | in isopropanol | in n-butanol | in propylene glycol | in sec-butanol | in transcutol | in water
298.15 K | 0.000474 | 0.000304 | 0.000414 | 0.000759 | 0.000362 | 0.000808 | 0.00394 | 1.11e-06
303.15 K | 0.000583 | 0.000416 | 0.00053 | 0.00091 | 0.000488 | 0.000968 | 0.00453 | 1.5e-06
308.15 K | 0.000715 | 0.000536 | 0.000658 | 0.00106 | 0.000624 | 0.00113 | 0.00533 | 1.93e-06
313.15 K | 0.000832 | 0.000671 | 0.000802 | 0.00122 | 0.000782 | 0.00129 | 0.00618 | 2.46e-06
318.15 K | 0.000969 | 0.000809 | 0.000941 | 0.00138 | 0.000952 | 0.00145 | 0.00714 | 3e-06
